Test results: patent publication US10294202B2, “Pyrrolidinones as herbicides” (FMC Corporation, priority 2013, dated 2019)

Experiments:
rice = experiment: Test C flooded paddy test; format: in vivo, Oryza sativa; conditions: Flood
How it was run: (§1)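 Visual ratings from 0, no effect, to 100, complete control, were made against untreated controls after 13–15 greenhouse days. Compounds had gone straight into paddy water 3 cm above the soil, kept at that depth, on 2-leaf-stage plants.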

galium = experiment: Test A postemergence herbicide test; format: in vivo, Galium aparine
How it was run: (§2)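 Injury was rated visually about 10 days after treatment on a 0 (no effect) to 100 (complete control) scale, compared with untreated plants. Test chemicals were sprayed postemergence onto greenhouse plants 2–10 cm high at one to two leaves, grown in a loam–sand blend.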

barnyardgrass = experiment: Test C flooded paddy test; format: in vivo, Echinochloa crus-galli; conditions: Flood
How it was run: as §1

kochia = experiment: Test A pre-/postemergence herbicide test; format: in vivo, Kochia scoparia
How it was run: (§3)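 Visual 0–100 ratings (100 = complete control) made about 10 days after treatment, greenhouse-held plants compared with untreated controls. Treatments: postemergence sprays on one- to two-leaf plants (2–10 cm tall) and preemergence directed soil sprays after planting in loam–sand, chemicals formulated in non-phytotoxic solvent containing surfactant.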

ragweed = experiment: Test A pre-/postemergence herbicide test; format: in vivo, Ambrosia elatior
How it was run: as §3

blackgrass = experiment: Test A postemergence herbicide test; format: in vivo, Alopecurus myosuroides
How it was run: as §2

ducksalad = experiment: Test C flooded paddy test; format: in vivo, Heteranthera limosa; conditions: Flood
How it was run: as §1

sedge, umbrella = experiment: Test C flooded paddy test; format: in vivo, Cyperus difformis; conditions: Flood
How it was run: as §1

[1] = 125 g ai/ha, scale of 0 to 100 where 0 is no effect and 100 is complete control, 13 to 15 days
[2] = 250 g ai/ha, scale of 0 to 100 where 0 is no effect and 100 is complete control, 13 to 15 days
[3] = 125 g ai/ha, 0 to 100 scale, 0 is no effect, 100 is complete control
[4] = 500 g ai/ha, 0 to 100 scale (0 no effect, 100 complete control)
[5] = Postemergence, 500 g ai/ha, 0 to 100 scale (0 no effect, 100 complete control)
[6] = Preemergence, 125 g ai/ha, 0 to 100 scale where 0 is no effect and 100 is complete control
[7] = preemergence, 500 g ai/ha, 0 to 100 scale, 0 is no effect and 100 is complete control

CN1CC(c2ccc(F)cc2)C(C(=O)Nc2cccc(F)c2F)C1=O (stereo not shown) [Compound 271]
Plant response rating, Rice (rice; [1]): 0 | Plant response rating, Rice (rice; [2]): 0 | Plant response rating, Rice (rice; 500 g ai/ha, scale 0 to 100): 0 | Plant response rating, Rice (rice; 1000 g ai/ha, scale 0 to 100): 0 | Plant response rating, Galium (galium; [3]): 40 | Plant response rating, Galium (galium; [4]): 70 | Plant response rating, Barnyardgrass (barnyardgrass; [1]): 40 | Plant response rating, Barnyardgrass (barnyardgrass; [2]): 45 | Plant response rating, Barnyardgrass (barnyardgrass; 500 g ai/ha, scale 0 to 100): 75 | Plant response rating, Barnyardgrass (barnyardgrass; 1000 g ai/ha, scale 0 to 100): 80 | Plant response rating, Kochia (kochia; Postemergence, 125 g ai/ha, 0 to 100 scale, 0 is no effect, 100 is complete control): 60 | Plant response rating, Kochia (kochia; [5]): 80 | Plant response rating, Kochia (kochia; [6]): 50 | Plant response rating, Kochia (kochia; [7]): 80 | Plant response rating, Ragweed (ragweed; Postemergence, 125 g ai/ha, visual rating on 0 to 100 scale (0 no effect, 100 complete control), approx. 10 days): 0 | Plant response rating, Ragweed (ragweed; [5]): 60 | Plant response rating, Ragweed (ragweed; [6]): 20 | Plant response rating, Ragweed (ragweed; [7]): 80 | Plant response rating, Blackgrass (blackgrass; [3]): 50 | Plant response rating, Blackgrass (blackgrass; [4]): 60 | Plant response rating, Ducksalad (ducksalad; [1]): 70 | Plant response rating, Ducksalad (ducksalad; [2]): 100 | Plant response rating, Ducksalad (ducksalad; 500 g ai/ha, scale 0 to 100): 100 | Plant response rating, Ducksalad (ducksalad; 1000 g ai/ha, scale 0 to 100): 100 | Plant response rating, Sedge, Umbrella (sedge, umbrella; [1]): 0 | Plant response rating, Sedge, Umbrella (sedge, umbrella; [2]): 0 | Plant response rating, Sedge, Umbrella (sedge, umbrella; 500 g ai/ha, scale 0 to 100): 0 | Plant response rating, Sedge, Umbrella (sedge, umbrella; 1000 g ai/ha, scale 0 to 100): 0
